Test results reported in ChEMBL document CHEMBL1127187, “Semisynthetic modification of hygromycin A. 2. synthesis and antibacterial activity of aryl analogs” (1993).
Converted amounts (≈) assume the structure as drawn.

Assays:
Type in all cases: functional
[1] = tested on: Brachyspira hyodysenteriae; test: Antibacterial activity against Serpulina (Treponema) hyodysenteriae (the causative organism of swine dysentery).
Pasteurella multocida = test: Antibacterial activity against Pasteurella multocida (an important animal respiratory pathogen).
[2] = tested on: Brachyspira hyodysenteriae; test: Compound was tested for antibacterial activity against Serpulina (Treponema hyodysenteriae (the causative organism of swine dysentery)

Compound	MIC [1] [µg/mL]	MIC (Pasteurella multocida) [µg/mL]	MIC [2] [µg/mL]
C=CCOc1ccc(/C=C(\C)C(=O)N[C@@H]2[C@H](O)[C@@H](O)[C@H]3OCO[C@H]3[C@@H]2O)c(F)c1	3.13 (≈ 7.65 µM)	25 (≈ 61.1 µM)	
C=CCOc1ccc(/C=C(/C)C(=O)N[C@@H]2[C@H](O)[C@@H](O)[C@H]3OCO[C@H]3[C@@H]2O)cc1F	1.56 (≈ 3.81 µM)	50 (≈ 122 µM)	
C=CCOc1ccc(/C=C(\C)C(=O)N[C@@H]2[C@H](O)[C@@H](O)[C@H]3OCO[C@H]3[C@@H]2O)c(F)c1F	25 (≈ 58.5 µM)	> 200	
C=CCOc1ccc(/C=C(/C)C(=O)N[C@@H]2[C@H](O)[C@@H](O)[C@H]3OCO[C@H]3[C@@H]2O)cc1	6.25 (≈ 16 µM)	50 (≈ 128 µM)	
C=CCOc1ccc(/C=C(/C)C(=O)N[C@@H]2[C@H](O)[C@@H](O)[C@H]3OCO[C@H]3[C@@H]2O)cc1O		0.78 (≈ 1.91 µM)	0.78 (≈ 1.91 µM)
C=CCOc1ccc(/C=C(/C)C(=O)N[C@@H]2[C@H](O)[C@@H](O)[C@H]3OCO[C@H]3[C@@H]2O)cc1Br	12.5 (≈ 26.6 µM)	> 200	
C=CCOc1ccc(/C=C(/C)C(=O)N[C@@H]2[C@H](O)[C@@H](O)[C@H]3OCO[C@H]3[C@@H]2O)cc1NC	> 200	> 200	
C=CCOc1ccc(/C=C(\C)C(=O)N[C@@H]2[C@H](O)[C@@H](O)[C@H]3OCO[C@H]3[C@@H]2O)c(Cl)c1	> 200	> 200	
C=CCOc1ccc(/C=C(/C)C(=O)N[C@@H]2[C@H](O)[C@@H](O)[C@H]3OCO[C@H]3[C@@H]2O)cc1CO		100 (≈ 237 µM)	
C=CCOc1c(F)cc(/C=C(\C)C(=O)N[C@@H]2[C@H](O)[C@@H](O)[C@H]3OCO[C@H]3[C@@H]2O)c(F)c1O	50 (≈ 113 µM)	100 (≈ 226 µM)	
C=CCOc1c(O)cc(/C=C(/C)C(=O)N[C@@H]2[C@H](O)[C@@H](O)[C@H]3OCO[C@H]3[C@@H]2O)cc1C#N	> 200	> 200	
C=CCOc1c(O)cc(/C=C(/C)C(=O)N[C@@H]2[C@H](O)[C@@H](O)[C@H]3OCO[C@H]3[C@@H]2O)cc1Br	> 200	> 200	
C=CCOc1cc(F)c(/C=C(/C)C(=O)N[C@@H]2[C@H](O)[C@@H](O)[C@H]3OCO[C@H]3[C@@H]2O)cc1F	1.56 (≈ 3.65 µM)	25 (≈ 58.5 µM)	
C=CCOc1ccc(/C=C(/C)C(=O)N[C@@H]2[C@H](O)[C@@H](O)[C@H]3OCO[C@H]3[C@@H]2O)cc1NS(C)(=O)=O	> 200	> 200	
C=CCOc1ccc(/C=C(/C)C(=O)N[C@@H]2[C@H](O)[C@@H](O)[C@H]3OCO[C@H]3[C@@H]2O)cc1C(=O)O	> 200	> 200	
C=CCOc1c(O)cc(/C=C(/C)C(=O)N[C@@H]2[C@H](O)[C@@H](O)[C@H]3OCOC3[C@@H]2O)cc1OC (single isomer, unassigned)	> 200	> 200	
C=CCOc1ccc(/C=C(/C)C(=O)N[C@@H]2[C@H](O)[C@@H](O)[C@H]3OCO[C@H]3[C@@H]2O)cc1Cl	3.13 (≈ 7.35 µM)		
C=CCOc1c(C)cc(/C=C(/C)C(=O)N[C@@H]2[C@H](O)[C@@H](O)[C@H]3OCO[C@H]3[C@@H]2O)cc1C	> 200	> 200	
C=CCOc1ccc(/C=C(/C)C(=O)N[C@@H]2[C@H](O)[C@@H](O)[C@H]3OCO[C@H]3[C@@H]2O)cc1I	100 (≈ 193 µM)		
C=CCOc1ccc(/C=C(\C)C(=O)N[C@@H]2[C@H](O)[C@@H](O)[C@H]3OCO[C@H]3[C@@H]2O)cc1CNCC		> 200	
CC(=O)[C@H]1O[C@@H](Oc2ccc(C=C(C)C(=O)N[C@@H]3[C@H](O)[C@@H](O)[C@H]4OCO[C@H]4[C@@H]3O)cc2O)[C@@H](O)[C@@H]1O [HYGROMYCIN A]	0.78 (≈ 1.52 µM)	0.78 (≈ 1.52 µM)	
C=CCOc1ccc(/C=C(/C)C(=O)N[C@@H]2[C@H](O)[C@@H](O)[C@H]3OCO[C@H]3[C@@H]2O)cc1N	0.78 (≈ 1.92 µM)	0.78 (≈ 1.92 µM)	
C=CCOc1ccc(/C=C(\C)C(=O)N[C@@H]2[C@H](O)[C@@H](O)[C@H]3OCO[C@H]3[C@@H]2O)c(OC)c1	> 200	> 200	
C=CCOc1ccc(/C=C(/C)C(=O)N[C@@H]2[C@H](O)[C@@H](O)[C@H]3OCO[C@H]3[C@@H]2O)cc1OC	> 200	> 200	
C=CCOc1ccc(/C=C(/C)C(=O)N[C@@H]2[C@H](O)[C@@H](O)[C@H]3OCO[C@H]3[C@@H]2O)cc1C	6.25 (≈ 15.4 µM)	50 (≈ 123 µM)	
C=CCOc1c(Br)cc(/C=C(/C)C(=O)N[C@@H]2[C@H](O)[C@@H](O)[C@H]3OCO[C@H]3[C@@H]2O)cc1Br	> 200	> 200	
C=CCOc1c(F)cc(/C=C(/C)C(=O)N[C@@H]2[C@H](O)[C@@H](O)[C@H]3OCO[C@H]3[C@@H]2O)cc1F	25 (≈ 58.5 µM)	> 200	
C=CCOc1ccc(/C=C(/C)C(=O)N[C@@H]2[C@H](O)[C@@H](O)[C@H]3OCO[C@H]3[C@@H]2O)cc1NC(C)=O	> 200	> 200	
